# Laboratory results: patent publication US8946223B2, “Substituted hydroxamic acids and uses thereof” (Millennium Pharmaceuticals, Inc., priority 2010, dated 2015)
# Biological target: T1, purified human HDAC6 (Homo sapiens, UniProt Q9UBN7)
# T1 construct: purchased BPS Bioscience 5006
# T1 sequence (Q9UBN7 1-1215): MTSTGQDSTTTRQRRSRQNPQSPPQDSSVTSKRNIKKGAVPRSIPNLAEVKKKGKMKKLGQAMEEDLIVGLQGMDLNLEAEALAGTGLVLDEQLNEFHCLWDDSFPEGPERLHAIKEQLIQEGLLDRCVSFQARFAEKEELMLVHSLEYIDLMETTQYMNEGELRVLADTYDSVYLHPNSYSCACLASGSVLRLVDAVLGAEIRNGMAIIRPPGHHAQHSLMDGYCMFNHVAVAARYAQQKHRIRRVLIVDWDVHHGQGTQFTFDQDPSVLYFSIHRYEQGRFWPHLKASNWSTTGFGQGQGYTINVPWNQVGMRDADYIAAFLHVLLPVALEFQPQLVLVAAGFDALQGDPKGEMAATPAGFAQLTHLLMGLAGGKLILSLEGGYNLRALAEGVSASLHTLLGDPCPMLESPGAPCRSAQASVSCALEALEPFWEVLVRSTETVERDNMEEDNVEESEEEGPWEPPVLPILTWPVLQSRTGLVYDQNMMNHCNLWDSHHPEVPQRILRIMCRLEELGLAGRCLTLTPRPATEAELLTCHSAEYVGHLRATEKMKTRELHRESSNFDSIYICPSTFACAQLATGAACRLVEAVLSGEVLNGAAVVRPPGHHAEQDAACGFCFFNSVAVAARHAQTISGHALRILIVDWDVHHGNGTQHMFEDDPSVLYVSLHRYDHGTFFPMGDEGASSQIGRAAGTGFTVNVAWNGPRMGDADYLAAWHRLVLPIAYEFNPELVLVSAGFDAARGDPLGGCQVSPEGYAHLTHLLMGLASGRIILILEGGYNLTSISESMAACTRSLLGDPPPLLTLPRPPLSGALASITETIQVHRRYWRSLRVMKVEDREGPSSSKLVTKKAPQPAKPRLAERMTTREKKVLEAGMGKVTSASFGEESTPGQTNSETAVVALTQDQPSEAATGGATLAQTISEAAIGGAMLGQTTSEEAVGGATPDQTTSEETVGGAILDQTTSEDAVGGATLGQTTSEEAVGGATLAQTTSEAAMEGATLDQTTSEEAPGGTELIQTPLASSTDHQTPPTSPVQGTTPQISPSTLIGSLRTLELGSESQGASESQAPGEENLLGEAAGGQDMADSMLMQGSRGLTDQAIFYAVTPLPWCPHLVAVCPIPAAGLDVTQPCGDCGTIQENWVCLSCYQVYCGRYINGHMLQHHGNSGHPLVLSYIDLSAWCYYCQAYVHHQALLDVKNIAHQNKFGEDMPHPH
# Assay: HDAC6 enzyme assay
# Type: biochemical
# Description: To measure the inhibition of HDAC6 activity, purified human HDAC6 (BPS Bioscience; Cat. No. 5006) is incubated with substrate Ac-Arg-Gly-Lys(Ac)-AMC peptide (Bachem Biosciences; Cat. No. I-1925) for 1 hour at 30° C. in the presence of test compounds or vehicle DMSO control. The reaction is stopped with the HDAC inhibitor trichostatin A (Sigma; Cat. No. T8552) and the amount of Arg-Gly-Lys-AMC generated is quantitated by digestion with trypsin (Sigma; Cat. No. T1426) and subsequent measurement of the amount of AMC released using a fluorescent plate reader (Pherastar; BMG Technologies) set at Ex 340 nm and Em 460 nm. Concentration response curves are generated by calculating the fluorescence increase in test compound-treated samples relative to DMSO-treated controls, and enzyme inhibition (IC50) values are determined from those curves.
# [1] = bins: greater than 1 μM and less than 10 μM, greater than 10 μM
SMILES,IC50 [1] [nM],IC50 (bin: less than 100 nM) [nM]
"Cc1oc(-c2ccccc2)nc1CC(=O)N1CCn2cc(C(=O)NO)cc2C1 [Compound I-82, N-hydroxy-2-[(5-methyl-2-phenyl-1,3-oxazol-4-yl)acetyl]-1,2,3,4-tetrahydropyrrolo[1,2-a]pyrazine-7-carboxamide]",> 10000,
"O=C(NO)c1cc2n(c1)CCCN(C(=O)C13CC4CC(CC(C4)C1)C3)C2 [Compound I-38, 2-[1-adamantylcarbonyl]-N-hydroxy-2,3,4,5-tetrahydro-1H-pyrrolo[1,2-a][1,4]diazepine-8-carboxamide]",1000 to 10000,
"Cc1c(C(=O)N2CCn3cc(C(=O)NO)cc3C2)cnn1-c1ccccc1 [Compound I-99, N-hydroxy-2-[(5-methyl-1-phenyl-1H-pyrazol-4-yl)carbonyl]-1,2,3,4-tetrahydropyrrolo[1,2-a]pyrazine-7-carboxamide]",,< 100
"Cc1nc(C(=O)N2CCn3cc(C(=O)NO)cc3C2)cs1 [Compound I-73, N-hydroxy-2-[(2-methyl-1,3-thiazol-4-yl)carbonyl]-1,2,3,4-tetrahydropyrrolo[1,2-a]pyrazine-7-carboxamide]",> 10000,
"O=C(NO)c1cn2c(n1)CN(C(=O)c1cc3ccccc3s1)CC2 [Compound I-44, 7-(1-benzothien-2-ylcarbonyl)-N-hydroxy-5,6,7,8-tetrahydroimidazo[1,2-a]pyrazine-2-carboxamide]",,< 100
"CC(C)(C)c1ccc(C(=O)N2CCCn3cc(C(=O)NO)cc3C2)cc1 [Compound I-18, 2-(4-tert-butylbenzoyl)-N-hydroxy-2,3,4,5-tetrahydro-1H-pyrrolo[1,2-a][1,4]diazepine-8-carboxamide]",1000 to 10000,
"Cn1cccc1C(=O)N1CCn2cc(C(=O)NO)cc2C1 [Compound I-32, N-hydroxy-2-[(1-methyl-1H-pyrrol-2-yl)carbonyl]-1,2,3,4-tetrahydropyrrolo[1,2-a]pyrazine-7-carboxamide]",,< 100
"O=C(NO)c1cc2n(n1)CCCN(C(=O)c1cc3ccccc3s1)C2 [Compound I-98, 5-(1-benzothien-2-ylcarbonyl)-N-hydroxy-5,6,7,8-tetrahydro-4H-pyrazolo[1,5-a][1,4]diazepine-2-carboxamide]",1000 to 10000,
"CC(=O)c1c(C)[nH]c(C(=O)N2CCn3cc(C(=O)NO)cc3C2)c1C [Compound I-15, 2-[(4-acetyl-3,5-dimethyl-1H-pyrrol-2-yl)carbonyl]-N-hydroxy-1,2,3,4-tetrahydropyrrolo[1,2-a]pyrazine-7-carboxamide]",1000 to 10000,
"O=C(NO)c1cc2n(c1)CCN(C(=O)c1ccc(-c3ccccc3)cc1)C2 [Compound I-51, 2-(biphenyl-4-ylcarbonyl)-N-hydroxy-1,2,3,4-tetrahydropyrrolo[1,2-a]pyrazine-7-carboxamide]",,< 100
"Cc1cc(C(=O)N2CCn3cc(C(=O)NO)cc3C2)c(C)[nH]1 [Compound I-94, 2-[(2,5-dimethyl-1H-pyrrol-3-yl)carbonyl]-N-hydroxy-1,2,3,4-tetrahydropyrrolo[1,2-a]pyrazine-7-carboxamide]",,< 100
"Cc1ccc(-c2ccc(C(=O)N3CCCn4cc(C(=O)NO)cc4C3)cc2)cc1 [Compound I-80, N-hydroxy-2-[(4′-methylbiphenyl-4-yl)carbonyl]-2,3,4,5-tetrahydro-1H-pyrrolo[1,2-a][1,4]diazepine-8-carboxamide]",1000 to 10000,
"CC1(C(=O)N2CCCn3cc(C(=O)NO)cc3C2)CCCCC1 [Compound I-74, N-hydroxy-2-[(1-methylcyclohexyl)carbonyl]-2,3,4,5-tetrahydro-1H-pyrrolo[1,2-a][1,4]diazepine-8-carboxamide]",1000 to 10000,
"Cc1nc(CC(=O)N2CCn3nc(C(=O)NO)cc3C2)cs1 [Compound I-90, N-hydroxy-5-[(2-methyl-1,3-thiazol-4-yl)acetyl]-4,5,6,7-tetrahydropyrazolo[1,5-a]pyrazine-2-carboxamide]",1000 to 10000,
"Cc1cc(C(=O)N2CCn3cc(C(=O)NO)cc3C2)c(C)o1 [Compound I-85, 2-(2,5-dimethyl-3-furoyl)-N-hydroxy-1,2,3,4-tetrahydropyrrolo[1,2-a]pyrazine-7-carboxamide]",,< 100
"O=C(NO)c1cc2n(n1)CCCN(C(=O)C13CC4CC(CC(C4)C1)C3)C2 [Compound I-72, 5-(1-adamantylcarbonyl)-N-hydroxy-5,6,7,8-tetrahydro-4H-pyrazolo[1,5-a][1,4]diazepine-2-carboxamide]",1000 to 10000,
"CCCCN1CCn2cc(C(=O)NO)cc2C1 [Compound I-86, 2-butyl-N-hydroxy-1,2,3,4-tetrahydropyrrolo[1,2-a]pyrazine-7-carboxamide]",> 10000,
"Cn1ccc2cc(C(=O)N3CCn4cc(C(=O)NO)cc4C3)ccc21 [Compound I-89, N-hydroxy-2-[(1-methyl-1H-indol-5-yl)carbonyl]-1,2,3,4-tetrahydropyrrolo[1,2-a]pyrazine-7-carboxamide]",,< 100
"COc1ccc(C(=O)N2CCCn3nc(C(=O)NO)cc3C2)cc1 [Compound I-53, N-hydroxy-5-(4-methoxybenzoyl)-5,6,7,8-tetrahydro-4H-pyrazolo[1,5-a][1,4]diazepine-2-carboxamide]",> 10000,
"O=C(NO)c1cc2n(c1)CCN(C(=O)c1cn3ccccc3n1)C2 [Compound I-3, N-hydroxy-2-(imidazo[1,2-a]pyridin-2-ylcarbonyl)-1,2,3,4-tetrahydropyrrolo[1,2-a]pyrazine-7-carboxamide]",1000 to 10000,
"CC(C)(C)C(=O)N1CCn2nc(C(=O)NO)cc2C1 [Compound I-36, 5-(2,2-dimethylpropanoyl)-N-hydroxy-4,5,6,7-tetrahydropyrazolo[1,5-a]pyrazine-2-carboxamide]",> 10000,
"Cc1cc(C(=O)N2CCn3cc(C(=O)NO)cc3C2)c(C)n1Cc1cccs1 [Compound I-35, 2-{[2,5-dimethyl-1-(2-thienylmethyl)-1H-pyrrol-3-yl]carbonyl}-N-hydroxy-1,2,3,4-tetrahydropyrrolo[1,2-a]pyrazine-7-carboxamide]",,< 100
"O=C(NO)c1cn2c(n1)CN(C(=O)NCc1ccccc1)CC2 [Compound I-123, N7-benzyl-N2-hydroxy-5,6-dihydroimidazo[1,2-a]pyrazine-2,7(8H)-dicarboxamide]",1000 to 10000,
"Cc1c(C(=O)N2CCn3cc(C(=O)NO)cc3C2)cc(-c2ccccc2)n1-c1ccccc1 [Compound I-87, N-hydroxy-2-[(2-methyl-1,5-diphenyl-1H-pyrrol-3-yl)carbonyl]-1,2,3,4-tetrahydropyrrolo[1,2-a]pyrazine-7-carboxamide]",,< 100
"O=C(NO)c1cc2n(c1)CCN(Cc1ccc(C(F)(F)F)cc1)C2=O [Compound I-240, N-hydroxy-1-oxo-2-[4-(trifluoromethl)benzyl]-1,2,3,4-tetrahydropyrrolo[1,2-a]pyrazine-7-carboxamide]",,< 100
"CC(C)(C)CC(=O)N1CCCn2cc(C(=O)NO)cc2C1 [Compound I-59, 2-(3,3-dimethylbutanoyl)-N-hydroxy-2,3,4,5-tetrahydro-1H-pyrrolo[1,2-a][1,4]diazepine-8-carboxamide]",1000 to 10000,
"Cn1cccc1C(=O)N1CCCn2nc(C(=O)NO)cc2C1 [Compound I-71, N-hydroxy-5-[(1-methyl-1H-pyrrol-2-yl)carbonyl]-5,6,7,8-tetrahydro-4H-pyrazolo[1,5-a][1,4]diazepine-2-carboxamide]",> 10000,
"Cc1cc(C(=O)N2CCCn3cc(C(=O)NO)cc3C2)c(C)o1 [Compound I-4, 2-(2,5-dimethyl-3-furoyl)-N-hydroxy-2,3,4,5-tetrahydro-1H-pyrrolo[1,2-a][1,4]diazepine-8-carboxamide]",> 10000,
"O=C(NO)c1cc2n(c1)CCN(C(=O)c1csc3ccccc13)C2 [Compound I-10, 2-(1-benzothien-3-ylcarbonyl)-N-hydroxy-1,2,3,4-tetrahydropyrrolo[1,2-a]pyrazine-7-carboxamide]",,< 100
